System: green peach aphid (Myzus persicae)
Test: Activity increase by ammonium/phosphonium salts in combination with penetrants, Myzus persicae test
Type: in vivo
Conditions: 20 ppm, +AS 1000 ppm, bell pepper plants
Protocol: Activity Increase by Ammonium/Phosphonium Salts in Combination with Penetrants Myzus persicae Test
Solvent: 7 parts by weight of dimethylformamide
Emulsifier: 2 parts by weight of alkylaryl polyglycol ether
To produce a suitable preparation of active compound, 1 part by weight of active compound is mixed with the stated amounts of solvent and emulsifier, and the concentrate is diluted with emulsifier-containing water to the desired concentration. If the addition of ammonium salts or ammonium salts and penetrants is required, these are in each case added in a concentration of 1000 ppm after dilution to the finished solution of the preparation.
Bell pepper plants (Capsicum annuum) which are heavily infested by the green peach aphid (Myzus persicaei) are treated by being sprayed with the active compound preparation at the desired concentration.
After the desired period of time, the kill in % is determined. 100% means that all animals have been killed; 0% means that none of the animals have been killed.
For `CC(C)Nc1c(-c2ncccc2Cl)c(Cl)nc2c(C(=O)NS(C)(=O)=O)cnn12` [Example I-32], the “Kill (%) after 6 d +AS 1000 ppm” value was 60%.

Same assay, conditions: 20 ppm, +AS + RME in each case 1000 ppm, bell pepper plants
With `CC(C)Nc1c(-c2ncccc2Cl)c(Cl)nc2c(C(=O)NS(C)(=O)=O)cnn12` [Example I-32] the “Kill (%) after 6 d +AS + RME in each case 1000 ppm” value was 90%.

Same assay, conditions: 20 ppm, active compound alone, bell pepper plants
With `CC(C)Nc1c(-c2ncccc2Cl)c(Cl)nc2c(C(=O)NS(C)(=O)=O)cnn12` [Example I-32] the “Kill (%) after 6 d” value was 10%.

System: Boophilus microplus
Test: Boophilus microplus test (injection)
Type: in vivo
Conditions: application rate of 20 μg/animal
Protocol: Boophilus microplus Test (Injection) Solvent: dimethyl sulphoxide To produce a suitable preparation of active compound, 1 part by weight of active compound is mixed with the stated amount of solvent, and the concentrate is diluted with solvent to the desired concentration. The solution of active compound is injected into the abdomen (Boophilus microplus), the animals are transferred into dishes and stored in a climatized room. After the desired period of time, the effect in % is determined. 100% means that none of the ticks has laid any fertile eggs.
With `CC(C)C(C)Nc1c(-n2nc(C(F)(F)F)cc2C(F)(F)F)c(Cl)nc2c(C(=O)NS(C)(=O)=O)cnn12` (centres unmarked) [Example I-4] the “effect (no fertile eggs laid)” value was at least 80%.

System: not listed separately
Test: logP determination by HPLC on reverse-phase column (EEC Directive 79/831 Annex V.A8)
Type: physicochemical
Conditions: HPLC reverse-phase C 18, 43° C., pH 2.7, 0.1% aqueous formic acid and acetonitrile
Protocol: The logP values given in the tables and preparation examples above were determined in accordance with EEC Directive 79/831 Annex V.A8 by HPLC (High Performance Liquid Chromatography) on a reverse-phase column (C 18). Temperature: 43° C. The determination was carried out by LC-MS at pH 2.7 using 0.1% aqueous formic acid and acetonitrile (containing 0.1% formic acid) as mobile phases; linear gradient from 10% acetonitrile to 95% acetonitrile. Calibration was carried out using unbranched alkan-2-ones (having 3 to 16 carbon atoms) with known logP values (determination of the logP values by the retention times using linear interpolation between two successive alkanones).
With `CC(C)Nc1c(-n2nc(C(F)(F)F)cc2C(F)(F)F)c(Cl)nc2c(C(=O)O)cnn12` [Example I-20] the logP was “m/z 457, logP 3.11”. For `O=C(O)c1cnn2c(NCC3CC3)c(-n3nc(C(F)(F)F)cc3C(F)(F)F)c(Cl)nc12` [Example I-23], the logP was “m/z 469, logP 3.22”. For `CC(C)C(C)Nc1c(-n2cc(Cl)cn2)c(Cl)nc2c(C(=O)O)cnn12` (centres unmarked) [Example I-25], the logP was “m/z 383, logP 2.81”. For `Cc1nn(C)c(-c2c(Cl)nc3c(C(=O)O)cnn3c2NC(C)C)c1Cl` [Example I-57], the logP was “logP 2.20”.

Same assay, conditions: intermediates of the formula (IV); HPLC reverse-phase C18, 43° C., pH 2.7 (0.1% aqueous formic acid/acetonitrile)
With `COC(=O)c1cnn2c(O)c(-n3nc(C(F)(F)F)cc3C(F)(F)F)c(O)nc12` [IV-3] the logP was “m/z 412, logP 1.37”. For `COC(=O)c1cnn2c(O)c(-n3cc(Cl)cn3)c(O)nc12` [IV-4], the logP was “m/z 310, logP 0.43”. For `COC(=O)c1cnn2c(O)c(-c3nc(C)sc3C)c(O)nc12` [IV-5], the logP was “m/z 321, logP 0.43”. For `COC(=O)c1cnn2c(O)c(-c3cncc(Br)c3)c(O)nc12` [IV-15], the logP was “logP 0.78”. With `COC(=O)c1cnn2c(O)c(-c3c(Cl)c(C)nn3C)c(O)nc12` [IV-17] the logP was “logP 0.59”. With `COC(=O)c1cnn2c(O)c(-c3ncc(C(F)(F)F)cc3F)c(O)nc12` [IV-19] the logP was “logP 0.91”. With `COC(=O)c1cnn2c(O)c(-c3ncccc3C(F)(F)F)c(O)nc12` [IV-20] the logP was “logP 0.65”.

Same assay, conditions: intermediates of the formula (V); HPLC reverse-phase C18, 43° C., pH 2.7 (0.1% aqueous formic acid/acetonitrile)
In the case of `COC(=O)c1cnn2c(Cl)c(-n3nc(C(F)(F)F)cc3C(F)(F)F)c(Cl)nc12` [V-3], the logP was “m/z 448, logP 3.64”. In the case of `COC(=O)c1cnn2c(Cl)c(-n3cc(Cl)cn3)c(Cl)nc12` [V-5], the logP was “m/z 346, logP 2.50”. With `COC(=O)c1cnn2c(Cl)c(-c3c(C)nn(C)c3C)c(Cl)nc12` [V-8] the logP was “m/z 354, logP 1.88”. In the case of `COC(=O)c1cnn2c(Cl)c(-c3c(Cl)c(C)nn3C)c(Cl)nc12` [V-18], the logP was “logP 2.67”. For `COC(=O)c1cnn2c(Cl)c(-c3ncccc3C(F)(F)F)c(Cl)nc12` [V-21], the logP was “logP 2.61”.

Same assay, conditions: intermediates of the formula (VI); HPLC reverse-phase C18, 43° C., pH 2.7 (0.1% aqueous formic acid/acetonitrile)
With `COC(=O)c1cnn2c(NC(C)C(C)C)c(-n3cc(Cl)cn3)c(Cl)nc12` (centres unmarked) [VI-9] the logP was “m/z 397, logP 3.59”. In the case of `COC(=O)c1cnn2c(NC(C)C)c(-c3ncc(F)cc3F)c(Cl)nc12` [VI-11], the logP was “m/z 382, logP 2.76”. For `COC(=O)c1cnn2c(NC(C)C(F)(F)F)c(-c3c(C)nn(C)c3C)c(Cl)nc12` (centres unmarked) [VI-12], the logP was “m/z 431, logP 2.54”.

Same assay, conditions: reverse-phase C18 HPLC column; HPLC reverse-phase C 18, 43° C., pH 2.7, 0.1% aqueous formic acid and acetonitrile
In the case of `N#CC(C#N)c1c(Cl)cncc1Cl` [2-(3,5-dichloropyridin-4-yl)malononitrile], the chromatographic logP was 0.9. `COC(=O)c1cnn2c(Cl)c(-n3nc(C)cc3C)c(Cl)nc12` [Example V-1, Methyl 5,7-dichloro-6-(3,5-dimethyl-1H-pyrazol-1-yl)pyrazolo[1,5-a]pyrimidine-3-carboxylate] gave a chromatographic logP of 2.16. `COC(=O)c1cnn2c(Cl)c(-c3ncc(Cl)cc3Cl)c(Cl)nc12` [Example V-2, Methyl 5,7-dichloro-6-(3,5-dichloropyridin-2-yl)pyrazolo[1,5-a]pyrimidine-3-carboxylate] gave a chromatographic logP of 3.12. Work on `COC(=O)c1cnn2c(O)c(-n3nc(C)cc3C)c(O)nc12` [IV-1, Methyl 6-(3,5-dimethyl-1H-pyrazol-1-yl)-5,7-dihydroxypyrazolo[1,5-a]pyrimidine-3-carboxylate] yielded a chromatographic logP of 0.41. Work on `COC(=O)c1cnn2c(O)c(-c3ncc(Cl)cc3Cl)c(O)nc12` [IV-2, Methyl 6-(3,5-dichloropyridin-2-yl)-5,7-dihydroxypyrazolo[1,5-a]pyrimidine-3-carboxylate] yielded a chromatographic logP of 0.74. `COC(=O)c1cnn2c(NCC(F)(F)F)c(-n3nc(C(F)(F)F)cc3C(F)(F)F)c(Cl)nc12` [VI-2, Methyl 6-[3,5-bis(trifluoromethyl)-1H-pyrazol-1-yl]-5-chloro-7-[(2,2,2-trifluoroethyl)amino]-pyrazolo[1,5-a]pyrimidine-3-carboxylate] gave a chromatographic logP of 3.79.

— patent US20100167931A1, “HETEROCYCLICALLY SUBSTITUTED HETEROCYCLYLCARBOXYLIC ACID DERIVATIVES” (Bayer CropScience AG, priority 2007, published 2010)
